Source: ChEMBL document CHEMBL5257024, “Synthesis of α,β-Unsaturated Carbonyl-Based Compounds, Oxime and Oxime Ether Analogs as Potential Anticancer Agents for Overcoming Cancer Multidrug Resistance by Modulation of Efflux Pumps in Tumor Cells” (J Med Chem, 2016)
Active and inactive are the calls of the source. The calls are words filed in the database; no cut-off is given here.

Assays:
[1] = Cytotoxicity against human MCF-10A cells assessed as cell viability incubated for 96 hrs by MTT assay; assay type: toxicity, cell-based; parameters: concentration or dose not given beside the values; details: read-out: Activity
[2] = system: MIA PaCa-2; experiment: Antiproliferative activity against human MIA PaCa-2 cells assessed as inhibition of cell growth incubated for 48 hrs by propidium iodide staining based fluorometer assay; assay type: functional; details: MIA PaCa-2, 48 h
[3] = system: MCF7; experiment: Antiproliferative activity against human MCF7 cells assessed as inhibition of cell growth incubated for 48 hrs by propidium iodide staining based fluorometer assay; assay type: functional; details: MCF7, 48 h
[4] = system: A549; experiment: Antiproliferative activity against human A549 cells assessed as inhibition of cell growth incubated for 48 hrs by propidium iodide staining based fluorometer assay; assay type: functional; details: A549, 48 h
[5] = molecular target: Tubulin (Sus scrofa) (UniProt P02554+P02550); experiment: Inhibition of pig brain tubulin polymerization at 25 uM measured after 15 mins by fluorescence based turbidimetry; assay type: tissue-based
Tubulin (Sus scrofa), sequence (P02550 whole entry, looked up): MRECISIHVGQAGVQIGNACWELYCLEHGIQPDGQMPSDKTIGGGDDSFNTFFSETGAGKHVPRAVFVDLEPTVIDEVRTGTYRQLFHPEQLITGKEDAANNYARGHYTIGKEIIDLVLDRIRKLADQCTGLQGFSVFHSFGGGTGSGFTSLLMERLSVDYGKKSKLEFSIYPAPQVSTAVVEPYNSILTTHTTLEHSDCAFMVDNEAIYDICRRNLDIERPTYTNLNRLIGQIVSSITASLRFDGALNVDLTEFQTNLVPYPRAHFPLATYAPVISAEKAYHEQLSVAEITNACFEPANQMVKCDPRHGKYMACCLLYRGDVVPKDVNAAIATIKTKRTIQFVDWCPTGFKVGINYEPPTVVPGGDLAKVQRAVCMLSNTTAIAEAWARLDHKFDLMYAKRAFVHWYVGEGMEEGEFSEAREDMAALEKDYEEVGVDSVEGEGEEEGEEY
Tubulin (Sus scrofa), sequence (P02554 whole entry, looked up): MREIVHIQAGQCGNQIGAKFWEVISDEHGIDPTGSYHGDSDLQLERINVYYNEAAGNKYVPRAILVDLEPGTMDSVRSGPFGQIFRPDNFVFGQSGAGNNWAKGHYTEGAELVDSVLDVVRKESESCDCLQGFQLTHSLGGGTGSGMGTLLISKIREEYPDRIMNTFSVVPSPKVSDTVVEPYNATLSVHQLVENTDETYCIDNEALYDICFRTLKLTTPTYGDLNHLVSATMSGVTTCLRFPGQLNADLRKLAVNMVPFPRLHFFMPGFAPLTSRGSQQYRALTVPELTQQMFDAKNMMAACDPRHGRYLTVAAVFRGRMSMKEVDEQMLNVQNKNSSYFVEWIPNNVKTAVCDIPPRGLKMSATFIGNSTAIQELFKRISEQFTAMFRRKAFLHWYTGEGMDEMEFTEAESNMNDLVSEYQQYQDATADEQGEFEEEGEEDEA

[6] = species: Sus scrofa; experiment: Induction of pig brain microtubule stabilization at 25 uM measured after 15 mins by fluorescence based turbidimetry; assay type: tissue-based
[7] = molecular target: Epidermal growth factor receptor (Homo sapiens, UniProt P00533); experiment: Inhibition of recombinant 6His-tagged EGFR cytoplasmic domain (645 to 1186 residues) (unknown origin) autophosphorylation expressed in baculovirus infected Sf9 insect cells preincubated for 10 mins followed by ATP and MgCl2 addition measured after 60 mins by DELFIA/time-resolved fluorometric analysis
Epidermal growth factor receptor, sequence (P00533 whole entry, the tested form may be a part): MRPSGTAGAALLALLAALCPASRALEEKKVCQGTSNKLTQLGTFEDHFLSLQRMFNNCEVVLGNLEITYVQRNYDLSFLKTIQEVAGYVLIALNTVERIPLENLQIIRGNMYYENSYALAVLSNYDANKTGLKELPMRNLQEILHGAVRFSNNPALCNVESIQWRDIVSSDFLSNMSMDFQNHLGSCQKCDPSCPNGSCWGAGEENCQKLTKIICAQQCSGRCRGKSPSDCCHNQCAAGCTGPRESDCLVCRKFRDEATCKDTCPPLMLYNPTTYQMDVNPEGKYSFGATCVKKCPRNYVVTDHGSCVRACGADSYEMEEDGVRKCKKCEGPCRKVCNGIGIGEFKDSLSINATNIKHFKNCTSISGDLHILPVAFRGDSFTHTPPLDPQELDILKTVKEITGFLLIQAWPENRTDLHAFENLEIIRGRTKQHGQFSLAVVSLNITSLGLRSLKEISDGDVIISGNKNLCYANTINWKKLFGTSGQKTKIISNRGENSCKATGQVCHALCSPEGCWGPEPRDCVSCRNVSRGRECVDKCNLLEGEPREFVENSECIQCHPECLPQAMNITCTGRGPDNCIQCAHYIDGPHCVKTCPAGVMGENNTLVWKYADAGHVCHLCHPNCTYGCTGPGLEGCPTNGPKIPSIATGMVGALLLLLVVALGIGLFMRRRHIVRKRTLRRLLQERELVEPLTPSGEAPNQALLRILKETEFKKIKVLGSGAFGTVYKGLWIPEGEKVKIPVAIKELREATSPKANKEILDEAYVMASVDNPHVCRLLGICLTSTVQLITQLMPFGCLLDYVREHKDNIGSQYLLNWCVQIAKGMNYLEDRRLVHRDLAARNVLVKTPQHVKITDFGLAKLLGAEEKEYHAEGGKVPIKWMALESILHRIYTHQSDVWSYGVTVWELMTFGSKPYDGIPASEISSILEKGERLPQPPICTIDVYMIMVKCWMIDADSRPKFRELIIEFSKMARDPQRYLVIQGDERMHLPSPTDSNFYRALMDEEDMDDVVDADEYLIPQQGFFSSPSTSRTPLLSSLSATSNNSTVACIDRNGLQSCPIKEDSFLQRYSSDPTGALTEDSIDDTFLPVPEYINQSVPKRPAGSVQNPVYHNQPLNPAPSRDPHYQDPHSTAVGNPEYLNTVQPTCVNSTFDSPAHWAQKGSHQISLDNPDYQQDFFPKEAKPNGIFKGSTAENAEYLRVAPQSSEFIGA

[8] = Inhibition of full length mouse GST-tagged BRAF V600E mutant preincubated for 60 mins followed by addition of N-terminal His-tagged full length human MEK1 incubated for 25 mins in presence of ATP by ELISA assay
[9] = system: L5178Y; experiment: Reversal of multidrug resistance in mouse L5178Y cells transfected with human MDR1 assessed as reversal of rhodamine 123 accumulation at 50 ug/ml incubated for 30 mins by flow cytometry; assay type: functional, cell-based; details: dose 50.0 µg/ml
[10] = system: L5178Y; experiment: Reversal of multidrug resistance in mouse L5178Y cells transfected with human MDR1 assessed as reversal of rhodamine 123 accumulation at 5 ug/ml incubated for 30 mins by flow cytometry; assay type: functional, cell-based; details: dose 5.0 µg/ml
[11] = Toxicity in mouse L5178Y cells transfected with human MDR1 at 50 ug/ml after short period of incubation by tryptan blue assay; assay type: cell-based; details: dose 50 µg/ml
[12] = system: PANC-1; experiment: cells; details: Homo sapiens, PANC-1, 48 h
Description: Antiproliferative activity against human PANC-1 cells assessed as inhibition of cell growth incubated for 48 hrs by propidium iodide staining based fluorometer assay

[13] = system: HT-29; experiment: cells; details: Homo sapiens, HT-29, 48 h
Description: Antiproliferative activity against human HT-29 cells assessed as inhibition of cell growth incubated for 48 hrs by propidium iodide staining based fluorometer assay

[14] = system: NCI-H460; experiment: cells; details: Homo sapiens, NCI-H460, 48 h
Description: Antiproliferative activity against human NCI-H460 cells assessed as inhibition of cell growth incubated for 48 hrs by propidium iodide staining based fluorometer assay

[15] = system: PC-3; experiment: cells; details: Homo sapiens, PC-3, 48 h
Description: Antiproliferative activity against human PC-3 cells assessed as inhibition of cell growth incubated for 48 hrs by propidium iodide staining based fluorometer assay

IC50 [2] [µM] | IC50 [3] [µM] | IC50 [4] [µM] | inhibition [5] | IC50 [7] [µM] | IC50 [8] [µM] | IC50 [12] [µM] | IC50 [13] [µM] | IC50 [14] [µM] | IC50 [15] [µM] | IC50 ([7]; sf9) [µM] | Structure (SMILES) | viability at 96 h [1] [%] | Activity [6] | Activity [9] | Activity [10] | Activity [11]
0.09 | 0.07 | 0.08 | Active | 2 | 0.9 | 0.09 | 0.09 | 0.08 | 0.02 | – | COc1ccc(/C=C2\CCc3ccc([N+](=O)[O-])cc3\C2=N\O)c(Cl)c1OC | 93 | inactive | Active | inactive | Non-Toxic
0.7 | 0.4 | 0.3 | Active | – | 2.7 | 0.2 | 0.4 | 0.4 | 0.4 | 0.5 | COc1cc(/C=C2\CC(C)C/C(=C\c3cc(OC)c(OC)c(OC)c3Br)C2=NO)c(Br)c(OC)c1OC (stereo not given) | 98 | inactive | inactive | inactive | Non-Toxic
0.02 | 0.09 | 0.02 | Active | 1.9 | 1 | 0.02 | 0.03 | 0.04 | 0.02 | – | COc1cc(/C=C2\CCc3ccc([N+](=O)[O-])cc3\C2=N\O)c(Br)c(OC)c1OC | 96 | inactive | Active | inactive | Non-Toxic
1.2 | 0.8 | 1.2 | Active | 2.1 | 1.9 | 1 | 1.7 | 1.1 | 1.4 | – | COc1ccc2c(c1)CCC(=C\c1cc(OC)c(OC)c(OC)c1Br)/C2=N\O | 92 | inactive | Active | inactive | Non-Toxic
0.07 | 0.06 | 0.06 | inactive | 0.07 | 1.6 | 0.09 | 0.07 | 0.08 | 0.09 | – | COc1cc(/C=C2\CN(C)C/C(=C\c3cc(OC)c(OC)c(OC)c3Br)C2=NO)c(Br)c(OC)c1OC | 96 | inactive | inactive | inactive | Non-Toxic
2.9 | 2.2 | 1.9 | Active | 8.4 | 6.3 | 2.1 | 2.2 | 2.6 | 2.2 | – | COc1cc2c(cc1OC)C(=N/O)/C(=C/c1cc(OC)c(OC)c(OC)c1Br)CC2 | 92 | inactive | Active | inactive | Non-Toxic
1.2 | 1.4 | 2 | Active | 4.6 | 1.7 | 1.5 | 1.1 | 1.3 | 2.3 | – | COc1cc(/C=C2\CCc3c(O)cccc3\C2=N\O)c(Br)c(OC)c1OC | 90 | inactive | Active | inactive | Non-Toxic
